Test system: Collagen Induced Arthritis (CIA) in female Lewis rats
Assay: In vivo chronic study: Collagen Induced Arthritis (CIA)
Parameters: species or system rat
Conditions: 0.5 mg/Kg
From the text: Collagen Induced Arthritis (CIA) is a well characterized model of human rheumatoid arthritis (RA) that can be induced in susceptible animals following immunization with type II collagen (cII) in Freund's adjuvant. […] Pathophysiology of CIA consists of T cell component, as evidenced by increased infiltration of T-cells in joint synovium and also, by attenuation of CIA in T-cell deficient mice. CIA development involves B cell component too, as is evidenced by circulating cII antibody in disease animals and also, failure to develop the disease in xid mice/B cell deficient mice/CXCR5 null mice. […] See, Pine, “Inflammation and bone erosion are suppressed in models of rheumatoid arthritis following treatment with a novel Syk inhibitor”, Clin. Immunol., 2007, 124(3):244-57; Xiong cha, “Suppression of the onset and progression of collagen-induced arthritis in rats by QFGJS, a preparation from an anti-arthritic Chinese herbal formula”, J. Ethnopharmacology (2007) 110:39-48; and Stolina, “The evolving systemic and local biomarker milieu at different stages of disease progression in rat collagen induced arthritis”, Biomarkers (2008) 13(7-8):692-712, which are herein incorporated by reference.
Female Lewis rats (8 per group, 6-8 weeks old) were immunized on day 1 with type II collagen (Immunization grade Bovine type II; Chondrex; Cat #20021) emulsified with Complete Freund's Adjuvant (Sigma; Cat# F5881) at a final concentration of 1.2 mg/mL). For the initial immunization, the animals were injected at the base of the tail with 300 μg of the cII (0.25 mL/rat). A booster injection of the same type II collagen emulsified with Incomplete Freund's Adjuvant (Sigma, Cat #F5506) (0.25 mL/rat) was given to the animals on day 8 at the base of the tail (100 μg). The final cII concentration in the booster was […].
Animals with an arthritic score of ≥1 were grouped and dosing with test compound (30 mg/kg bid) or methotrexate (0.5 mg/kg) started between about day 12 to day 14, with daily dosing of their respective compounds continuing for 10 days.
Edema: Paw volumes are measured by Plethysmometry for the animals before induction of CIA (Basal readings) and on Day 1, 3, 6 and 9 of dosing period. Both hind paw volumes were measured and edema was calculated by subtracting from the basal mean.
Arthritic score: Animals were scored for the symptoms of arthritis every day starting from Day of onset of disease till the end of the study. Both the hind paws were scored and the total scores were averaged and compared with control. The scoring pattern was as follows:
The percent inhibition of Edema was calculated with respect to control by the formula: […]
The percent inhibition of Arthritic score was calculated with respect to control by the formula: […]
Means of different groups were compared with control using one way ANOVA followed by Dunnett's test. Significance is represented as follows.

## CN(Cc1cnc2nc(N)nc(N)c2n1)c1ccc(C(=O)N[C@@H](CCC(=O)O)C(=O)O)cc1 [Methotrexate, methotrexate, reference compound]
Day 9 of dosing
  Percent inhibition of Edema (Day 9 of dosing): 6
Day 10 of dosing
  Percent inhibition of Arthritic score (Day 10 of dosing): 15
